# Measured values from article PMC12867150, “A fungi-derived cyclic peptide enhances Th9-mediated antitumor immunity by targeting ZAP70 and SREBP1” (The Journal of Clinical Investigation, 2025).
# Where “and” joins values, the source holds several entries; their conditions need not be identical. Equal values may be shown once.
# Legend:
# [1] = system: endogenous CD4+ T cells; experiment: Cytokines and granzyme B/perforin in endogenous CD4+ T cells (Figure 3I, S4G-I); type: in vivo, mouse; parameters: TNF-α expression / IFN-γ expression / Expression of IFN-g of endogenous CD4⁺ T cells in tumor / Expression of TNF-α of endogenous CD4⁺ T cells in tumor: unit not given here; conditions: for Expression of IFN-g of endogenous CD4⁺ T cells in tumor: Supplemental Figure 4G; for Expression of TNF-α of endogenous CD4⁺ T cells in tumor: Supplemental Figure 4H; for Expression of GzmB+Perforin+ of endogenous CD4⁺ T cells in tumor: Supplemental Figure 4I
# Experimental: (§1) C57BL/6 mice were subcutaneously injected with 5 × 10^5 B16-OVA melanoma cells. Five days after tumor implantation, mice received an intravenous infusion of 2 × 10^6 in vitro–differentiated Th9 cells (cultured for 5 days), which were derived from OT-II CD45.1 donor mice, accompanied by 4 × 10^5 OVA peptide–pulsed DCs via the tail vein. To enhance T cell engraftment and facilitate lymphodepletion, a single intraperitoneal injection of cyclophosphamide (200 mg/kg, Sigma, catalog C0768) was administered 1 day prior to T cell transfer. Mice were euthanized at designated time points for the collection and analysis of spleens, tumor-draining lymph nodes, and tumor tissues.
# (§2) Details regarding staining panels (human and mouse), reagents (including clones and catalog numbers), acquisition settings, compensation/controls, and analysis procedures are provided in Supplemental Methods.
# (§3) BioLegend, Cat. No. 422301 or Mouse TruStain FcX™, BioLegend, Cat. No. 101319) for 10 minutes at 4°C. For surface marker detection, cells were stained with fluorochrome-conjugated monoclonal antibodies in 96-well V-bottom plates and incubated on ice for 30 minutes. After staining, cells were washed twice and resuspended in FACS buffer for analysis.
# (§4) Prior to intracellular cytokine staining, cells were restimulated for 4 hours with PMA (Absin, Cat. No. abs9107), ionomycin (Sigma-Aldrich, Cat. No. I0634), and brefeldin A (MedChemExpress, Cat. No. HY-16592). For intracellular cytokine staining, cells were first surface-stained as described above, then fixed and permeabilized using the BD Cytofix/Cytoperm™ kit (BD Biosciences, Cat. No. 554714) according to the manufacturer ’s protocol. Intracellular proteins were stained with directly conjugated antibodies targeting IL-9, IL-17a, IL-4, IFN-γ, TNF-α, FOXP3, p-ZAP70, Perforin, and […]
# (§5) Antibodies used for mouse samples included those against IL-9 (PE, clone RM9A4, Biolegend, Cat. No. 514104), IFN-γ (PE, clone XMG1.2, Biolegend, Cat. No.
# (§6) Cat. No. 103138), CD4 (APC/Cy7, clone E-AB-F1353UJ, Elabscience, Cat. No.
# (§7) AF18028), CD8α (PerCP/Cy5.5, clone E-AB-F1104UJ, Elabscience, Cat. No. […]
# (§8) clone E-AB-F1187UH, Elabscience, Cat. No. AF19854), TNF-α (BV421, clone MP6-XT22, Biolegend, Cat. No. 506328), FOXP3 (PE, clone FJK-16s, eBioscience, Cat. No.
# Perforin (APC, clone S16009A, Biolegend, Cat. No. 154303) and Granzyme B (APC, clone QA16A02, Biolegend, Cat. No. 372203). For human samples, antibodies against CD4 (PerCP/Cy5.5, clone RPA-T4, Biolegend, Cat. No. 300530; APC/Cy7, clone OKT4, Biolegend, Cat. No. 317418), CD19 (APC/Cy7, clone SJ25C1, Biolegend, Cat.
# No. 363009), IFN-γ (PE, clone 4S.B3, Biolegend, Cat. No. 502509), IL-9 (PE, clone
# [2] = system: endogenous CD4+ T cells; experiment: Flow cytometry of endogenous CD4+ T cells in spleen, LN, tumor (Figure 2D-E, S1F-H); type: in vivo, mouse; conditions: for Frequencies of endogenous CD4⁺ T cells in LN: Supplemental Figure 1G left; for Number of endogenous CD4⁺ T cells in LN: Supplemental Figure 1G right; for CD4 gate number: representative flow plot; for endogenous CD4 T cells (%) / number of endogenous CD4 T cells: individual mice, n = 4
# Experimental: as §1, §2, §3, §4, §5, §6, §7, §8
# Perforin (APC, clone S16009A, Biolegend, Cat. No. 154303) and Granzyme B (APC, […]
# clone QA16A02, Biolegend, Cat. No. 372203). […]
# Figure S1. EpA enhances immune responses. […]
# I) Representative flow-cytometric plots of endogenous CD4⁺ and CD8⁺ T cells in spleens (F), LNs (G), and tumors (H); frequencies and absolute numbers of endogenous CD4⁺ (G) and CD8⁺ (I) T cells in LNs are quantified. (J and K) […]
# Statistical analysis was performed using two-way ANOVA with Tukey’s post hoc test (A), one-way ANOVA with Tukey’s post hoc test (B) or two-tailed unpaired Student’s t-test (D and G–M). ns, not significant. *p < 0.05, **p < 0.01, ****p < 0.0001.
# (also on this page, place not known: Mouse weight (g) CtrlEpA CtrlEpA CtrlEpA0 I CD45.1+ T cells (%) CtrlEpA CD4+ T cells (%) CtrlEpA CtrlEpA CtrlEpA FSC CD8 CD8 FSC FSC FSC BNumber of CD45.1+ T cells (×103 per mgĎ Number of CD4+ T cells (×104 per mgĎ DC (%)NK cells (%) NK cells (%) DC (%) Number of DC (×103 per mg) Number of NK cells (×105) Number of NK cells (×103 per mg) Number of DC (×105) FSC FSC FSC CD8 CtrlEpA CtrlEpA CtrlEpA CD8+ T cells (%) Number of CD8+ T cells (×104 per mgĎ nsns ns nsns ns 40 IL-6 (pg/ml)) […]
# [3] = endogenous CD4+, spleen, individual mice, n = 4
substance,measurement,setting,value
anteiso-C15 Leu7 surfactin [EpA],GzmB+ PRF1+ gate number,"[1]; CD4+ T cells in tumors, representative flow plot, Figure S4I",5.26
same,GzmB and Perforin expression,[1]; [3],8.38 and 8.7 and 5.23 and 4.52
same,IFN-γ expression,[1]; [3],10.3 and 15 and 14.6 and 10.5
same,TNF-α expression,[1]; [3],13.3 and 10.2 and 13.4 and 20.6
same,TNF-α expression of CD4+ T cells,"[1]; spleen, result in words",remained unchanged
same,granzyme B+ perforin+ CD4+ T cells,"[1]; spleen, result in words",pronounced increase
same,Expression of IFN-g of endogenous CD4⁺ T cells in tumor,[1]; replicate 1,193
same,Expression of IFN-g of endogenous CD4⁺ T cells in tumor,[1]; replicate 2,141
same,Expression of IFN-g of endogenous CD4⁺ T cells in tumor,[1]; replicate 3,342
same,Expression of IFN-g of endogenous CD4⁺ T cells in tumor,[1]; replicate 4,291
same,Expression of TNF-α of endogenous CD4⁺ T cells in tumor,[1]; replicate 1,483
same,Expression of TNF-α of endogenous CD4⁺ T cells in tumor,[1]; replicate 2,294
same,Expression of TNF-α of endogenous CD4⁺ T cells in tumor,[1]; replicate 3,665
same,Expression of TNF-α of endogenous CD4⁺ T cells in tumor,[1]; replicate 4,542
same,Expression of GzmB+Perforin+ of endogenous CD4⁺ T cells in tumor,[1]; replicate 1,5.25
same,Expression of GzmB+Perforin+ of endogenous CD4⁺ T cells in tumor,[1]; replicate 2,5.18
same,Expression of GzmB+Perforin+ of endogenous CD4⁺ T cells in tumor,[1]; replicate 3,5.26
same,Expression of GzmB+Perforin+ of endogenous CD4⁺ T cells in tumor,[1]; replicate 4,9.14
same,TNF-α expression of CD4+ T cells,"[1]; tumors, result in words",upregulated TNF-α expression
same,Frequencies of endogenous CD4⁺ T cells in LN,"[2]; LN, replicate 1",32.6
same,Frequencies of endogenous CD4⁺ T cells in LN,"[2]; LN, replicate 2",26.4
same,Frequencies of endogenous CD4⁺ T cells in LN,"[2]; LN, replicate 3",36
same,Frequencies of endogenous CD4⁺ T cells in LN,"[2]; LN, replicate 4",26
same,Number of endogenous CD4⁺ T cells in LN,"[2]; LN, replicate 1",43261
same,Number of endogenous CD4⁺ T cells in LN,"[2]; LN, replicate 2",37630
same,Number of endogenous CD4⁺ T cells in LN,"[2]; LN, replicate 3",15416
same,Number of endogenous CD4⁺ T cells in LN,"[2]; LN, replicate 4",15595.7
same,CD4 gate number,"[2]; LN, Figure S1G",36.0
same,CD4 gate number,"[2]; Spleen, Figure S1F",26.1
same,CD4 gate number,"[2]; Tumor, Figure S1H",15.2
same,endogenous CD4+ T cell frequency and number,"[2]; spleens, lymph nodes, tumors, result in words",minimal changes
same,endogenous CD4 T cells (%),[2]; spleens,30.3% and 32.9% and 35.5% and 26.1%
same,number of endogenous CD4 T cells,[2]; spleens,1093264 and 1018812 and 1081910 and 535955
same,endogenous CD4 T cells (%),[2]; tumors,15.2% and 16.6% and 24% and 21.6%
same,number of endogenous CD4 T cells,[2]; tumors,158 and 294 and 393 and 62
